Where two headings read alike, the source gives them in different places.

For test [1], the system named is TH17 cell differentiation (human CD4+CCR6+ T cells). Description: Human Th17 cell differentiation assay (IL-17A ELISA). As to conditions: 96 h, IL-17A in extracellular media by ELISA, 4 days, mean, read-out: Inhibition of TH17 cell differentiation-Mean IC50. Type of test: cell-based. For orientation: In an ELISA, binding on a coated surface is turned into a signal by an enzyme label.

Test [2] addresses RORγ ligand binding domain (Homo sapiens (Human), UniProt P51449). As to the kind of experiment: biochemical. The test is classed as biochemical. As for the experimental part:
Various concentrations of test ligands in 0.1 microlitres DMSO were dispensed to assay plates using an Labcyte Echo acoustic dispenser. Two pre-mixes were prepared and incubated for 1 hr at room temp in the dark.

Chain of RORγ ligand binding domain (P51449 whole entry, looked up, the tested form may be a part): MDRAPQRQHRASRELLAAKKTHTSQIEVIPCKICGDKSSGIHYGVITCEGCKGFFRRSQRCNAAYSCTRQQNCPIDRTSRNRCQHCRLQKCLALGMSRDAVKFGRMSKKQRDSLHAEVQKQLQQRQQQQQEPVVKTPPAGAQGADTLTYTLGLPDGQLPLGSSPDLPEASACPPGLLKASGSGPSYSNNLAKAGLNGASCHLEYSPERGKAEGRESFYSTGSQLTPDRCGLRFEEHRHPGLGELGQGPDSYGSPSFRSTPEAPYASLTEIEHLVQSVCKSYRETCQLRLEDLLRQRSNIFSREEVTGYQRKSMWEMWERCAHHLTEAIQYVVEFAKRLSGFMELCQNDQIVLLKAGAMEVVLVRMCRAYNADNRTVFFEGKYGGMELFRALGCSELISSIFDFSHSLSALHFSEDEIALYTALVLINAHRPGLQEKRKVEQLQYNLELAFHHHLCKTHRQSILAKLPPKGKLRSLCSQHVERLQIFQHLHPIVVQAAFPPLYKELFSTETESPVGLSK

As to `O=C(O)c1ccc(-n2cc(C(=O)c3c(Cl)cccc3C(F)(F)F)c3ccccc32)cc1` [Comparator 1, 4-[3-[2-chloro-6-(trifluoromethyl)benzoyl]-1H-indol-1-yl]benzoic acid, reference compound], in test [1], the concentration for half-maximal inhibition (IC50) (usually the concentration at which inhibition is half-maximal) was found to be 45.3 nM.

With `O=C(O)c1ccc(-n2cc(C(=O)c3c(F)cccc3C(F)(F)F)c3cccc(F)c32)cc1` [Comparator 2, 4-[7-fluoro-3-[2-fluoro-6-(trifluoromethyl)benzoyl]-1-H-indol-1-yl]benzoic acid, reference compound], the values for the concentration for half-maximal inhibition (IC50) in test [2] (read-out: RORγ FRET-Mean IC50) and in test [1] were 61.9 nM and 48.2 nM, respectively.

Take `O=C(O)c1ccc(-n2cc(C(=O)c3c(F)cccc3C(F)(F)F)c3cccc(F)c32)c(F)c1` [Comparator 5, 3-fluoro-4-[7-fluoro-3-[2-fluoro-6-(trifluoromethyl)benzoyl]-1H-indol-1-yl]benzoic acid, reference compound]: the 50% inhibitory concentration (IC50) was 111 nM in test [2] (read-out: RORγ FRET-Mean IC50) and 47 nM in test [1].

As to `O=C(O)c1ccc(-n2cc(C(=O)c3c(Cl)cccc3C(F)(F)F)c3cccc(F)c32)cc1O` [Compound 2, 4-[3-[2-chloro-6-(trifluoromethyl)benzoyl]-7-fluoro-indol-1-yl]-2-hydroxy-benzoic acid], the IC50 in test [2] (read-out: RORγ FRET-Mean IC50) is 17.9 nM; in test [1] it was 12.6 nM.

`O=C(O)c1ccc(-n2cc(C(=O)c3c(Cl)cccc3C(F)(F)F)c3cccc(F)c32)c(F)c1` [Compound 3, 4-[3-[2-chloro-6-(trifluoromethyl)benzoyl]-7-fluoro-indol-1-yl]-3-fluoro-benzoic acid]: the IC50 in test [2] (read-out: RORγ FRET-Mean IC50) amounted to 37.9 nM; in test [1], 15 nM.

Consider `O=C(O)c1ccc(-n2cc(C(=O)c3c(Cl)cccc3C3CC3)c3cccc(F)c32)c(F)c1` [Compound 4, 4-[3-(2-chloro-6-cyclopropyl-benzoyl)-7-fluoro-1H-indol-1-yl]-3-fluoro-benzoic acid], for which the half-maximal inhibitory concentration (IC50) in test [2] came out at 42.9 nM; in test [1], 31.9 nM.

The record behind these values is patent publication US9861612B2 (priority 2014, dated 2018).
